Experiments:
Type in all cases: in vivo
rice (Oryra sativa) = assay: Test B flooded paddy test; settings: Oryza sativa, 250 g ai/ha, Flood; 0 to 100 scale where 0 is no effect and 100 is complete control; read-out: Rice plant response rating
How it was run: (§1)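 2-leaf plants; pots flooded 3 cm over soil; cpd added to paddy water; depth held; greenhouse 13–15 d; visual rating vs controls, 0 = no effect, 100 = complete control.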

[1] = system: barnyardgrass (Echinochloa crus-galli); assay: Test B flooded paddy test; settings: Echinochloa crus-galli, 250 g ai/ha, Flood; 0 to 100 scale where 0 is no effect and 100 is complete control; read-out: Barnyardgrass plant response rating
How it was run: as §1

[2] = system: ducksalad (Heteranthera limosa); assay: Test B flooded paddy test; settings: Heteranthera limosa, 250 g ai/ha, Flood; 0 to 100 scale where 0 is no effect and 100 is complete control; read-out: Ducksalad plant response rating
How it was run: as §1

[3] = system: sedge, umbrella (small-flower umbrella sedge, Cyperus difformis); assay: Test B flooded paddy test; settings: Cyperus difformis, 250 g ai/ha, Flood; 0 to 100 scale where 0 is no effect and 100 is complete control; read-out: Sedge, Umbrella plant response rating
How it was run: as §1

[4] = system: blackgrass (Alopecurus myosuroides); assay: Test A postemergence; settings: Alopecurus myosuroides, post-emergence, 240 h, Postemergence, read-out: Plant response rating, Blackgrass
How it was run: (§2)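 In a loam soil and sand blend, planted seeds got a preemergence directed soil spray, and young plants at the one- to two-leaf stage, 2–10 cm high, got a postemergence application; ~10 d greenhouse hold; injury rated visually, 0 = none, 100 = complete control.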

Kochia (Kochia scoparia) [5] = assay: Test A postemergence; settings: Bassia scoparia, post-emergence, 240 h, Postemergence, read-out: Plant response rating, Kochia
How it was run: as §2

[6] = system: ryegrass, Italian (Italian ryegrass, Lolium multiflorum); assay: Test A postemergence; settings: Lolium multiflorum, post-emergence, 240 h, Postemergence, read-out: Plant response rating, Ryegrass, Italian
How it was run: as §2

[7] = system: giant foxtail (Setaria faberii); assay: Test A postemergence; settings: Setaria faberi, post-emergence, 240 h, Postemergence, read-out: Plant response rating, Foxtail, Giant
How it was run: as §2

corn (Zea mays) = assay: Test A postemergence; settings: Zea mays, post-emergence, 240 h, Postemergence
How it was run: as §2

[8] = system: wheat (Triticum aestivum); assay: Test A postemergence; settings: Triticum aestivum, post-emergence, 240 h, Postemergence, read-out: Plant response rating, Wheat
How it was run: as §2

[9] = system: Galium (catchweed bedstraw, Galium aparine); assay: Test A postemergence; settings: Galium, post-emergence, 240 h, Postemergence, read-out: Plant response rating, Galium
How it was run: as §2

[10] = system: barnyardgrass (Echinochloa crus-galli); assay: Test A postemergence; settings: Echinochloa crus-galli, post-emergence, 240 h, Postemergence, read-out: Plant response rating, Barnyardgrass
How it was run: as §2

[11] = system: ragweed (common ragweed, Ambrosia elatior); assay: Test A postemergence; settings: Ambrosia artemisiifolia, post-emergence, 240 h, Postemergence, read-out: Plant response rating, Ragweed
How it was run: as §2

[12] = system: pigweed (Amaranthus retroflexus); assay: Test A postemergence; settings: Amaranthus retroflexus, post-emergence, 240 h, Postemergence, read-out: Plant response rating, Pigweed
How it was run: as §2

Kochia (Kochia scoparia) [13] = assay: Test A preemergence; settings: Bassia scoparia, pre-emergence, 240 h, Preemergence
How it was run: as §2

[14] = system: ryegrass, Italian (Italian ryegrass, Lolium multiflorum); assay: Test A preemergence; settings: Lolium multiflorum, pre-emergence, 240 h, Preemergence
How it was run: as §2

[15] = system: giant foxtail (Setaria faberii); assay: Test A preemergence; settings: Setaria faberi, pre-emergence, 240 h, Preemergence
How it was run: as §2

[16] = system: barnyardgrass (Echinochloa crus-galli); assay: Test A preemergence; settings: Echinochloa crus-galli, pre-emergence, 240 h, Preemergence
How it was run: as §2

[17] = system: ragweed (common ragweed, Ambrosia elatior); assay: Test A preemergence; settings: Ambrosia artemisiifolia, pre-emergence, 240 h, Preemergence
How it was run: as §2

[18] = system: pigweed (Amaranthus retroflexus); assay: Test A preemergence; settings: Amaranthus retroflexus, pre-emergence, 240 h, Preemergence
[19] = 125 g ai/ha, visual injury after approximately 10 d, 0 to 100 scale where 0 is no effect and 100 is complete control
[20] = 31 g ai/ha, visual injury after approx. 10 d, 0 to 100 scale, 0 no effect, 100 complete control

Structure (SMILES): CC(C)=CC1CNC(=O)C1C(=O)Nc1cccc(F)c1F (stereo not drawn) [Compound 1012]
- pest or weed control at 250 g/ha (rice (Oryra sativa)): 20%
- pest or weed control at 250 g/ha [1]: 0%
- pest or weed control at 250 g/ha [2]: 0%
- pest or weed control at 250 g/ha [3]: 0%
- pest or weed control at 125 g/ha [4, 19]: 0%
- pest or weed control at 31 g/ha [4, 20]: 0%
- pest or weed control at 125 g/ha (Kochia (Kochia scoparia) [5]; [19]): 0%
- pest or weed control at 31 g/ha (Kochia (Kochia scoparia) [5]; [20]): 0%
- pest or weed control at 125 g/ha [6, 19]: 0%
- pest or weed control at 31 g/ha [6, 20]: 0%
- pest or weed control at 125 g/ha [7, 19]: 0%
- pest or weed control at 31 g/ha [7, 20]: 0%
- Corn plant response rating (crop injury, 0 = no effect, 100 = complete kill) at 125 g/ha (corn (Zea mays); [19]): 0%
- Corn plant response rating (crop injury, 0 = no effect, 100 = complete kill) at 31 g/ha (corn (Zea mays); [20]): 0%
- plant injury at 125 g/ha [8, 19]: 0%
- plant injury at 31 g/ha [8, 20]: 0%
- pest or weed control at 125 g/ha [9, 19]: 0%
- pest or weed control at 31 g/ha [9, 20]: 0%
- pest or weed control at 125 g/ha [10, 19]: 0%
- pest or weed control at 31 g/ha [10, 20]: 0%
- pest or weed control at 125 g/ha [11, 19]: 0%
- pest or weed control at 31 g/ha [11, 20]: 0%
- pest or weed control at 125 g/ha [12, 19]: 0%
- pest or weed control at 31 g/ha [12, 20]: 0%
- pest or weed control at 31 g/ha (Kochia (Kochia scoparia) [13]; 31 g ai/ha, 0 to 100 scale where 0 is no effect and 100 is complete control, read-out: Kochia plant response rating): 0%
- pest or weed control at 125 g/ha (Kochia (Kochia scoparia) [13]; 125 g ai/ha, visual injury rating after approximately 10 d, read-out: Kochia plant response rating (0 to 100 scale, 0 is no effect, 100 is complete control)): 0%
- pest or weed control at 31 g/ha ([14]; 31 g ai/ha, 0 to 100 scale where 0 is no effect and 100 is complete control, read-out: Ryegrass, Italian plant response rating): 0%
- pest or weed control at 125 g/ha ([14]; 125 g ai/ha, visual injury rating after approximately 10 d, read-out: Ryegrass, Italian plant response rating (0 to 100 scale, 0 is no effect, 100 is complete control)): 0%
- pest or weed control at 125 g/ha ([15]; 125 g ai/ha, visual injury rating after approximately 10 d, read-out: Foxtail, Giant plant response rating (0 to 100 scale, 0 is no effect, 100 is complete control)): 0%
- pest or weed control at 31 g/ha ([15]; 31 g ai/ha, 0 to 100 scale (0 no effect, 100 complete control), read-out: Plant response rating, Foxtail, Giant): 0%
- pest or weed control at 125 g/ha ([16]; 125 g ai/ha, visual injury rating after approximately 10 d, read-out: Barnyardgrass plant response rating (0 to 100 scale, 0 is no effect, 100 is complete control)): 0%
- pest or weed control at 31 g/ha ([16]; 31 g ai/ha, 0 to 100 scale (0 no effect, 100 complete control), read-out: Plant response rating, Barnyardgrass): 0%
- pest or weed control at 31 g/ha ([17]; 31 g ai/ha, 0 to 100 scale where 0 is no effect and 100 is complete control, read-out: Ragweed plant response rating): 0%
- pest or weed control at 125 g/ha ([17]; 125 g ai/ha, visual injury rating after approximately 10 d, read-out: Ragweed plant response rating (0 to 100 scale, 0 is no effect, 100 is complete control)): 0%
- pest or weed control at 31 g/ha ([18]; 31 g ai/ha, 0 to 100 scale where 0 is no effect and 100 is complete control, read-out: Pigweed plant response rating): 0%
- pest or weed control at 125 g/ha ([18]; 125 g ai/ha, visual injury rating after approximately 10 d, read-out: Pigweed plant response rating (0 to 100 scale, 0 is no effect, 100 is complete control)): 0%
